In patent US8501794B2, “Compounds as cannabinoid receptor ligands” (priority 2007, dated 2013):

Key:
human CB2 receptors = target: T1, human CB2 receptors (Homo sapiens, UniProt P34972); test: human CB2 radioligand binding assay ([3H]CP-55,940 competition)
T1 construct: expressed in transfected cells; host or cells: HEK293

rat CB2 [1] = target: T2, rat CB2 (Rattus norvegicus, UniProt Q9QZN9); test: rat CB2 cyclase functional assay (HitHunter cAMP, HEK cells); type: cell-based; design: expressed in transfected cells; host or cells: HEK; settings: forskolin 18 μM
T2 sequence (Q9QZN9 1-360): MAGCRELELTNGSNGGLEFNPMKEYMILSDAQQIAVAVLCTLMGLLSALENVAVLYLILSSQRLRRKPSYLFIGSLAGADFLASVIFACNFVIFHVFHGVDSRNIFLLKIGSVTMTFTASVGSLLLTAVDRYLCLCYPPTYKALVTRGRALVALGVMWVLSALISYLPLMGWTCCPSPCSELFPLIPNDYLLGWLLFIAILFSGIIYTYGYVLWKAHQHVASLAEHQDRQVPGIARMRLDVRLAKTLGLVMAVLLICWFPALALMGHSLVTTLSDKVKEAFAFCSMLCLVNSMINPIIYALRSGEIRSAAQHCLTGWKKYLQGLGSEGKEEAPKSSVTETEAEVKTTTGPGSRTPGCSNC

rat CB2 [2] = target: T2, rat CB2; test: rat CB2 radioligand binding assay ([3H]CP-55,940 competition); design: expressed in transfected cells; host or cells: HEK293

T1 sequence (P34972 whole entry): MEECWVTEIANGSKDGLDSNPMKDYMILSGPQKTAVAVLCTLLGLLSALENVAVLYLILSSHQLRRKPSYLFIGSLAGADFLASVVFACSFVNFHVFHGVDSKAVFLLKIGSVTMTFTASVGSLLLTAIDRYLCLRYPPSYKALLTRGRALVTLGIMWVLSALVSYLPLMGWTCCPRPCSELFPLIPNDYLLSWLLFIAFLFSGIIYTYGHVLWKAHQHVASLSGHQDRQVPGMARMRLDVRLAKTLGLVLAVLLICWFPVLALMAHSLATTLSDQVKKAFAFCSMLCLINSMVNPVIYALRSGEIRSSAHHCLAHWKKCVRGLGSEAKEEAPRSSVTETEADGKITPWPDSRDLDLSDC

With `CCCCc1cn(C(C)(C)C)s/c1=N\C(=O)[C@@]1(C)CC[C@@H](C(=O)NC)C1(C)C` [Example 218, (1S,3R)—N^1-[(5Z)-4-butyl-2-tert-butylisothiazol-5(2H)-ylidene]-N^3,1,2,2-tetramethylcyclopentane-1,3-dicarboxamide] the Ki (human CB2 receptors) was 53 nM, the EC50 (rat CB2 [1]) was 1.1 nM and the Ki (rat CB2 [2]) was 29 nM.
Work on `CCCCc1cn(C(C)(C)C)s/c1=N\C(=O)[C@@]1(C)CC[C@@H](C(=O)N2CCC2)C1(C)C` [Example 222, (1S,3R)-3-(azetidin-1-ylcarbonyl)-N-[(5Z)-4-butyl-2-tert-butylisothiazol-5(2H)-ylidene]-1,2,2-trimethylcyclopentanecarboxamide] yielded a Ki (human CB2 receptors) of 170 nM, an EC50 (rat CB2 [1]) of 5.7 nM and a Ki (rat CB2 [2]) of 70 nM.
For `CCCCc1cn(C(C)(C)C)s/c1=N\C(=O)[C@@]1(C)CC[C@@H](C(=O)N(C)C)C1(C)C` [Example 223, (1S,3R)—N^1-[(5Z)-4-butyl-2-tert-butylisothiazol-5(2H)-ylidene]-N^3,N^3,1,2,2-pentamethylcyclopentane-1,3-dicarboxamide], the Ki (human CB2 receptors) was 92 nM, the EC50 (rat CB2 [1]) was 5.8 nM and the Ki (rat CB2 [2]) was 62 nM.
In the case of `CCCCc1cn(C(C)(C)C)s/c1=N\C(=O)[C@@]1(C)CC[C@@H](C(=O)NCC(F)(F)F)C1(C)C` [Example 240, (1S,3R)—N^1-[(5Z)-4-butyl-2-tert-butylisothiazol-5(2H)-ylidene]-1,2,2-trimethyl-N^3-(2,2,2-trifluoroethyl)cyclopentane-1,3-dicarboxamide], the Ki (human CB2 receptors) is reported as 100 nM, the EC50 (rat CB2 [1]) is reported as 2.5 nM and the Ki (rat CB2 [2]) is reported as 156 nM.
`CCCCc1cn(C(C)(C)C)s/c1=N\C(=O)[C@]1(C)CC[C@H](NC(N)=O)C1(C)C` [Example 245, (1R,3S)-3-[(aminocarbonyl)amino]-N-[(5Z)-4-butyl-2-tert-butylisothiazol-5(2H)-ylidene]-1,2,2-trimethylcyclopentanecarboxamide] showed a Ki (human CB2 receptors) of 32 nM, an EC50 (rat CB2 [1]) of 9.6 nM and a Ki (rat CB2 [2]) of 35 nM.
